Data: patent US9993462B2, “Hydantoin derivative-containing pharmaceutical composition” (Chugai Seiyaku Kabushiki Kaisha, priority 2014, dated 2018)

Columns and labels:
[1] = system: normal rats; assay: Bone mineral density after four weeks of repeated intravenous administration to normal rats; assay type: in vivo, rat; conditions: intravenous once a day for four weeks
Experimental: Female RccHan: WIST rats obtained from Japan Laboratory Animals Inc. were acclimated for one week or longer under standard laboratory conditions of 20° C. to 26° C. and 30% to 70% humidity, and then used in experiments. The rats had free access to tap water and a standard rodent diet (CR-LPF) (Oriental Yeast Co., Ltd.).
Intravenous catheter was placed into eight-week old rats. The catheter was inserted from the femoral vein in the inguinal region, and the tip was extended into the caudal vena cava for placement at that site. The body weight was determined in the first week post-surgery, and the rats were divided into groups of ten animals per group so that the average body weight of each group would be even. Two days after group division, all rats were intravenously administered once a day repeatedly for four weeks. Administration was carried out by connecting an infusion pump (MEDFUSION SYRINGE INFUSION PUMP Model 2001) to the indwelling catheter.
The solvent (vehicle) was administered intravenously to the Vehicle-Control group. To the Compound 7-20 mg/kg, −30 mg/kg, and −50 mg/kg groups, Compound 7 dissolved in the vehicle was administered intravenously at a dose of 20 mg/kg, 30 mg/kg, and 50 mg/kg, respectively. For all groups, the administration volume was 5 mL/kg and the administration speed was 5 mL/kg/minute. The composition of the vehicle used was 5% dimethyl sulfoxide (Wako Pure Chemical Industries, Ltd.), 25% propylene glycol (Kanto Chemical Co., Inc.)/20% ethanol (Junsei Chemical Co., Ltd.)/15% hydroxypropyl-β-cyclodextrin (Nihon Shokuhin Kako Co., Ltd)/300 mM glycine (Wako Pure Chemical Industries, Ltd.)/192 mM sodium hydroxide (Wako Pure Chemical Industries, Ltd.)/physiological saline solution (Otsuka Pharmaceutical Factory, Inc.). Rats were euthanized under anesthesia the day after final administration by collecting blood from the abdominal aorta, and then autopsy was performed to collect the lumbar spine, lower leg bone, and mandible. The lumbar spine, lower leg bone, and mandible were stored in 70% ethanol. The bone mineral densities of the lumbar spine (second to fourth lumbar vertebrae), lower leg bone, and mandible were determined using a dual X-ray bone mineral scanner (DCS-600EX, Aloka).
The data are shown as mean value+standard error (SE). SAS preclinical package ver. 5.00 (SAS Institute Japan) was used to perform the following statistical analyses. The significance level was set to 5% on both sides. With regard to the lumbar spine, lower leg bone, and mandible bone mineral density, parametric Dunnett multiple comparison (*P<0.05) was performed for the three dosage groups of Compound 7 with the Vehicle-Control group as control.

[2] = system: normal rats; assay: Growth plate cartilage histology after four weeks of repeated oral administration to normal rats; assay type: in vivo, rat
Experimental: Female RccHan: WIST rats obtained from Japan Laboratory Animals Inc. were acclimated for at least one week under standard laboratory conditions of 20° C. to 26° C. and 30% to 70% humidity, and then used in experiments. The rats had free access to tap water and a standard rodent diet (CE-2, Clea Japan Inc.) containing 1.1% calcium, 1.0% phosphoric acid, and 250 IU/100 g vitamin D3.
After body weight measurement for the six-week old rats, they were divided into groups so that the average body weight of each group of ten rats would be even. From the day following group division, all rats were administered once a day repeatedly for four weeks. The solvent (vehicle) was orally administered to the Vehicle-Control group. To the Compound 7-6 mg/kg group, Compound 7-60 mg/kg group, and Compound 7-600 mg/kg group, Compound 7 suspended in the vehicle was administered orally at a dose of 6 mg/kg, 60 mg/kg, and 600 mg/kg, respectively. For all groups, the volume of administration was 2 mL/kg. Propylene glycol (special grade, Kanto Chemical Co., Inc.) was used for the vehicle. The rats were euthanized under anesthesia one day after the final administration by collecting blood from the abdominal aorta, and then autopsy was performed to collect the femur. The femur was fixed using a 10% neutral buffered formalin solution, and after demineralization, samples of paraffin-embedded tissue sections (hematoxylin-eosin stained) were prepared. Distal ends of the femur of the produced samples were observed histopathologically under a light microscope.

[3] = system: TPTX rat; assay: Calcemic action in the TPTX rat model; assay type: in vivo; conditions: TPTX rats, 30 mg/kg oral
Experimental: Four-week old female Crl:CD(SD) rats were obtained from Charles River Japan (Atsugi Breeding Center), and were acclimated to standard laboratory conditions of 20-26° C. and 35-75% humidity for one week. The rats were given tap water and were fed ad libitum with standard rodent chow (CE-2) (CLEA Japan, Inc.) containing 1.1% calcium, 1.0% phosphoric acid, and 250 IU/100 g of vitamin D3.
TPTX was performed on five-week old rats. Some of the individuals were subjected to sham operation (Sham). Individuals whose serum Ca concentration was less than 8 mg/dL on four days after the operation were selected for use as TPTX rats. On five days after the operation, the rats were assigned to eight TPTX groups and one Sham group (n=5, each group) based on their body weight and serum Ca concentration measured on four days after the operation. The solvent alone was orally administered to the Sham group and the TPTX-Vehicle group at a volume of 10 mL/kg. Each test article was orally administered individually to each TPTX test article group by dissolving it in a solvent at a dose of 30 mg/10 mL/kg. The solvent composition was 10% dimethylsulfoxide (Wako Pure Chemical Industries, Ltd.), 10% Cremophor EL (Sigma-Aldrich Japan LLC), 20% hydroxypropyl-β-cyclodextrin (Nihon Shokuhin Kako Co., Ltd.), glycine (Wako Pure Chemical Industries, Ltd.); and the pH was adjusted to 10. Immediately before administration of each sample, Pre-blood collection was performed, and blood collection was carried out at 2, 6, 10, and 24 hours after administration to measure the serum Ca concentration. Each blood collection was carried out from the jugular vein under isoflurane inhalation anesthesia.
Serum Ca measurement: Serum obtained by centrifugation from the collected blood was measured by using an automatic analyzer TBA-120FR (Toshiba Medical Systems Corporation).
For statistical analysis of the animal studies, data are shown as mean±standard error (SE). Statistical analysis were performed by unpaired test of the SAS Preclinical Package (Ver. 5.00.010720, SAS Institute Japan, Tokyo, Japan).

[4] = 60 mg/kg oral once a day for four weeks, 10 per group
[5] = 600 mg/kg oral once a day for four weeks, 10 per group

## Cc1cc(N2C(=O)NC(=O)C2(C)C)cc(C)c1CCS(=O)(=O)N1CCC2(CC1)N=C(c1ccc(OC(F)(F)F)cc1)NC2=O [Compound 7, 1-(3,5-dimethyl-4-(2-((4-oxo-2-(4-(trifluoromethoxy)phenyl)-1,3,8-triazaspiro[4.5]deca-1-en-8-yl)sulfonyl)ethyl)phenyl)-5,5-dimethylimidazolidine-2,4-dione]
[1]; 20 mg/kg
  percentage of increase in the lumbar spine bone mineral density with respect to the Vehicle-Control group: 16%
  percentage of increase of bone mineral density in the lower leg bone with respect to the Vehicle-Control group: 7%
[1]; 30 mg/kg
  percentage of increase in the lumbar spine bone mineral density with respect to the Vehicle-Control group: 21%
  percentage of increase of bone mineral density in the lower leg bone with respect to the Vehicle-Control group: 16%
  percentage of increase of mandible bone mineral density relative to the Vehicle-Control group: 7%
[1]; 50 mg/kg
  percentage of increase in the lumbar spine bone mineral density with respect to the Vehicle-Control group: 25%
  percentage of increase of bone mineral density in the lower leg bone with respect to the Vehicle-Control group: 19%
[2]; [4]
  Number of cases in which growth plate cartilage thickening was observed, Grade 1: 5
  Number of cases in which growth plate cartilage thickening was observed, Grade 2: 3
  Number of cases in which growth plate cartilage thickening was observed, Overall: 8
[2]; [5]
  Number of cases in which growth plate cartilage thickening was observed, Grade 3: 1
  Number of cases in which growth plate cartilage thickening was observed, Grade 4: 9
  Number of cases in which growth plate cartilage thickening was observed, Overall: 10
[2]; 6, 60, 600 mg/kg oral once a day for four weeks
  thickening of the femoral growth plate cartilage in comparison to the Vehicle-Control group (in words): dose-dependent thickening
[2]; one individual of the 600 mg/kg group, from the tissue image of FIG. 8 (Vehicle-Control individual approximately 390 μm)
  width of a representative growth plate cartilage: approximately 2940 μm
[3]
  achievement of the therapeutic target range of serum Ca concentration of 7.6 to 8.8 mg/dL: achieved the therapeutic target range
[3]; up to 24 hours after administration
  change of serum Ca concentration from the Pre-value (in words): large positive changes from the Pre-value
